Paper PMC12128972, “TYRA-300, an FGFR3-selective inhibitor, promotes bone growth in two FGFR3-driven models of chondrodysplasia” (JCI Insight, 2025)
Values joined by “and” are separate entries in the source; they are usually repeats but may differ in a detail not shown here. Identical values can stand only once.

Experiments:
FGFR3 N540K = test system: FGFR3 N540K; parameters: method as in PMID 39258897; conditions: cited from earlier work
[1] = test system: Fgfr3^N534K/+ mouse model of HCH; assay: Fgfr3N534K/+ mice: long bone length; assay type: in vivo; conditions: 2.4 mg/kg dose, data not shown
wild-type C57BL/6J mice = assay: Wild-type mouse growth velocity study; assay type: in vivo; parameters: nasoanal length, individual mice: unit not given here; conditions: for femur length by calipers, individual mice / tibia length by calipers, individual mice: final day of treatment (8 weeks of age), in mm (unit assumed); for femurs longer than vehicle / tibias longer than vehicle: 4 weeks of treatment
Protocol: To determine the in vivo effect of FGFR3 inhibition under normal physiologic conditions, TYRA-300 was tested in a growth velocity assay in wild-type mice ([32]). In this study, wild-type C57BL/6J mice were dosed orally with TYRA-300 once daily from 4 to 8 weeks of age. […] Based on the doses evaluated for infigratinib in oncology and ACH, a lower dose was thought to be more appropriate for long-term treatment of pediatric growth–related conditions. We therefore initially explored doses in the 8 to 14 mg/kg range in this model. […] Specifically, after treatment with 12 mg/kg TYRA-300, the tibias were on average 3.9% longer than the tibias of mice that received treatment with vehicle, and the femurs were on average 5.0% longer after treatment; additionally, with 14 mg/kg TYRA-300, the tibias were 6.4% longer and the femurs were 8.2% longer. There was no difference in body weight among the treatment groups (data not shown).
At 21 days of age, female C57BL/6J mice (The Jackson Laboratory) were subject to nasoanal length and nasotail length measurement while under anesthesia. Tail length was calculated by subtracting nasoanal length from nasotail length. Body weights were also recorded. One week later, at 28 days of age, nasoanal lengths and body weights were measured again and mice were randomized to treatment groups of 12 mice per group according to nasoanal length. TYRA-300 was dissolved in 30% hydroxypropyl-β-cyclodextrin for administration by oral gavage. Mice were dosed orally with TYRA-300 or vehicle control once daily (QD) for 4 weeks, and nasoanal lengths and body weights were monitored once weekly, along with daily clinical observations. Mouse tibias and femurs were collected and measured with calipers at the end of the study.

[2] = test system: Fgfr3^Y367C/+ mouse model, which mimics the phenotype of ACH; assay: Fgfr3Y367C/+ mice: growth, body weight and long bone length (calipers, x-ray); assay type: in vivo; parameters: nasoanal length, individual mice / tail length, individual mice: unit not given here; conditions: for nasoanal length, individual mice / tail length, individual mice / body weight, individual mice: 1.2 mg/kg/d s.c. from day 1
Protocol: In this study, Fgfr3^Y367C/+ mice were administered TYRA-300 daily by subcutaneous injection at a dose of 1.2 mg/kg for 15 days beginning at 1 day of age to evaluate the effects on growth, bone length, and key skeletal parameters, compared with those of vehicle-treated Fgfr3^Y367C/+ mice. Results were also compared with those from vehicle-treated Fgfr3^+/+ (wild-type) mice. […] In Fgfr3^Y367C/+ mice, the […], resulting in disproportionate long bones.
Tg-CMV^Cre/+/Fgfr3^Y367C/+ mice were tattooed and assigned to treatment groups within each litter at 1 day of age (wild-type mice, Fgfr3^Y367/+ mice treated with vehicle, or Fgfr3^Y367/+ mice treated with 1.2 mg/kg TYRA-300). TYRA-300 was dissolved in aqueous HCl (3.5 mM) containing 5% dimethyl sulfoxide (DMSO) and administered subcutaneously to Fgfr3^Y367/+ mice (n = 8) for 15 days. The vehicle was administered to wild-type (n = 10) or Fgfr3^Y367/+ mice (n = 10) for 15 days. Subcutaneous administration was used for this study rather than oral gavage due to the reduced size of the mice. Clinical observations, nasoanal length and tail length measurements were performed every 3 days, and body weights were collected daily.
Whole body x-ray images were taken of all animals by Faxitron specimen radiography MX-20 (Faxitron X-Ray LLC) following terminal sacrifice. The length of the L4–L6 lumbar vertebra segment was also measured for each animal using calipers, and the height of the L5 vertebral body was measured from Alcian blue/Sirius red images. Long bones and the skull were then excised, and their dimensions were measured using calipers (VWRi819-0013, VWR International). The transverse and sagittal diameters of the foramen magnum were also measured using calipers for the Fgfr3^Y367/+ model, and measured using the μCT images for the Fgfr3^N534K/+ model.

[3] = 12 mg/kg oral daily from week 4, week 3 of age (before treatment)
[4] = 12 mg/kg oral daily from week 4, week 4 of age (start of treatment)
[5] = 12 mg/kg oral daily from week 4, week 5 of age
[6] = 12 mg/kg oral daily from week 4, week 6 of age
[7] = 12 mg/kg oral daily from week 4, week 7 of age
[8] = 12 mg/kg oral daily from week 4, week 8 of age
[9] = 14 mg/kg oral daily from week 4, week 3 of age (before treatment)
[10] = 14 mg/kg oral daily from week 4, week 4 of age (start of treatment)
[11] = 1.2 mg/kg s.c. daily for 15 days
[12] = 1.2 mg/kg s.c. daily for 15 days from 1 day of age
[13] = Fgfr3Y367C/+ mice + TYRA-300, individual animal values, in mm (unit assumed)

C[C@@H](Oc1ccc2[nH]nc(-c3ccc(N4CC5(C4)CN(S(C)(=O)=O)C5)nc3)c2c1)c1c(Cl)cncc1Cl [TYRA-300]
inhibition of FGFR3 N540K relative to wild-type and G380R mutant proteins (FGFR3 N540K): lower inhibition
phenotypic observations in preliminary dose exploration [1]: phenotypic signs consistent with the Fgfr3^–/– model were observed
nasoanal length and tibia and femur length vs vehicle (wild-type C57BL/6J mice; 8 mg/kg and 10 mg/kg, data not shown, P < 0.05): significant increases
tail length and tibia and femur length vs vehicle (wild-type C57BL/6J mice; 12 mg/kg and 14 mg/kg oral once daily, 4 weeks): increased significantly and dose-dependently
nasoanal length, individual mice (wild-type C57BL/6J mice; [3]): 6.5 and 7.5 (2×) and 7.3 and 7 (3×) and 6.8 (2×) and 6.2 and 7.2 and 6
tail length, individual mice (wild-type C57BL/6J mice; [3]): 5.7 and 6.3 and 6 (2×) and 6.2 and 5.6 and 5.5 and 6.4 and 6.6 and 5.9 and 5.3 and 5.8
nasoanal length, individual mice (wild-type C57BL/6J mice; [4]): 7.7 (3×) and 8.2 and 7.8 (3×) and 8 (2×) and 7.2 and 8.3 and 7.3
tail length, individual mice (wild-type C57BL/6J mice; [4]): 5.9 and 7.2 (2×) and 6.9 (2×) and 6.7 and 6.8 and 6.3 and 6.4 (2×) and 5.7 and 6.5
nasoanal length, individual mice (wild-type C57BL/6J mice; [5]): 8.2 and 8.6 (3×) and 8.5 (2×) and 8.7 and 8.3 (3×) and 9 and 7.7
tail length, individual mice (wild-type C57BL/6J mice; [5]): 6.8 and 7.2 (3×) and 7.3 (2×) and 7.1 (2×) and 6.7 and 7.4 and 7.8 and 6.5
nasoanal length, individual mice (wild-type C57BL/6J mice; [6]): 8.6 (2×) and 8.8 (2×) and 8.7 (3×) and 9.2 and 9.1 and 9 and 9.3 and 8.4
tail length, individual mice (wild-type C57BL/6J mice; [6]): 7.3 and 7.8 (2×) and 7.9 and 7.7 (3×) and 7.6 (2×) and 8 and 8.2 and 7
nasoanal length, individual mice (wild-type C57BL/6J mice; [7]): 8.8 and 9.1 (2×) and 9 (3×) and 9.4 and 9.3 and 9.5 and 10 and 9.2 and 8.7
tail length, individual mice (wild-type C57BL/6J mice; [7]): 7.9 (2×) and 8 (3×) and 8.2 and 7.7 (2×) and 8.3 and 8.5 and 7.3 and 8.1
nasoanal length, individual mice (wild-type C57BL/6J mice; [8]): 9.2 (3×) and 9.3 (5×) and 9.4 and 9.5 and 10 and 8.8
tail length, individual mice (wild-type C57BL/6J mice; [8]): 7.8 and 8.2 and 7.9 and 8.1 (4×) and 8.3 and 8 and 8.5 and 8.6 and 7.5
femur length by calipers, individual mice (wild-type C57BL/6J mice; 12 mg/kg oral daily): 13.78 and 13.37 and 14.79 and 13.97 and 13.86 and 12.93 and 14.23 and 13.91 and 13.8 and 13.51 and 13.98
tibia length by calipers, individual mice (wild-type C57BL/6J mice; 12 mg/kg oral daily): 15.08 and 16.34 and 16.3 and 17.19 and 16.6 and 15.75 and 16.27 and 16.06 and 16.41 and 16.46 and 17
femurs longer than vehicle (wild-type C57BL/6J mice; 12 mg/kg oral once daily): 5.0%
tibias longer than vehicle (wild-type C57BL/6J mice; 12 mg/kg oral once daily): 3.9%
nasoanal length, individual mice (wild-type C57BL/6J mice; [9]): 6.6 and 7.6 (2×) and 7.3 (2×) and 6.7 and 6.3 and 7.1 and 7.2 (2×) and 6.8 and 6.9
tail length, individual mice (wild-type C57BL/6J mice; [9]): 5.5 (2×) and 6 (2×) and 6.4 (2×) and 6.1 and 5.3 and 5.7 and 5.6 (3×)
nasoanal length, individual mice (wild-type C57BL/6J mice; [10]): 7.7 (2×) and 8.2 (2×) and 7.8 (4×) and 8 (2×) and 7.3 and 7.2
tail length, individual mice (wild-type C57BL/6J mice; [10]): 6.3 and 6.9 (2×) and 7 (2×) and 6.8 and 6 (2×) and 6.4 (2×) and 6.6 and 6.7
nasoanal length, individual mice (wild-type C57BL/6J mice; 14 mg/kg oral daily from week 4, week 5 of age): 8.7 (2×) and 8.5 and 8.6
tail length, individual mice (wild-type C57BL/6J mice; 14 mg/kg oral daily from week 4, week 5 of age, in cm (unit assumed)): 7 and 7.6 and 7.4 and 7.5
femur length by calipers, individual mice (wild-type C57BL/6J mice; 14 mg/kg oral daily): 14.47 and 14.13 and 13.58 and 13.93 and 13.04 and 14.9 and 14.56 and 14.74 and 14.08 and 15.12 and 14.91 and 13.6
tibia length by calipers, individual mice (wild-type C57BL/6J mice; 14 mg/kg oral daily): 16.57 and 16.39 and 16.89 and 16.61 and 16.95 and 17.24 and 16.1 and 17.47 and 16.69 and 16.27
increase in nasoanal length vs vehicle (wild-type C57BL/6J mice; 14 mg/kg oral once daily, 4 to 8 weeks of age): 7.3%
femurs longer than vehicle (wild-type C57BL/6J mice; 14 mg/kg oral once daily): 8.2%
tibias longer than vehicle (wild-type C57BL/6J mice; 14 mg/kg oral once daily): 6.4%
body weight among the treatment groups (wild-type C57BL/6J mice; oral once daily, data not shown): no difference
increase in length of the femur vs vehicle [2, 11]: 22.55%
increase in length of the humerus vs vehicle [2, 11]: 15.52%
increase in length of the tibia vs vehicle [2, 11]: 33.01%
increase in length of the ulna vs vehicle [2, 11]: 23.51%
increase in nasoanal length vs vehicle-treated mutant mice [2, 12]: 17.88%
increase in tail length vs vehicle-treated mutant mice [2, 12]: 25.10%
increase in body weight vs vehicle-treated mice ([2]; 1.2 mg/kg s.c. daily, end of treatment): 52.9%
nasoanal length, individual mice ([2]; day 1): 29 (4×) and 30 and 28 and 31 (2×)
tail length, individual mice ([2]; day 1): 12 and 13 (6×) and 14
body weight, individual mice ([2]; day 1, in g (unit assumed)): 1.56 and 1.58 and 1.46 and 1.33 and 1.47 and 1.4 and 1.37 and 1.6
body weight, individual mice ([2]; day 2, in g (unit assumed)): 1.72 and 1.94 and 1.84 and 1.42 and 1.55 and 1.46 and 1.53 and 2.01
body weight, individual mice ([2]; day 3, in g (unit assumed)): 1.9 and 2.33 and 2.12 and 1.64 and 1.76 and 1.63 and 1.84 and 2.4
nasoanal length, individual mice ([2]; day 4): 32 and 34 (2×) and 35 and 31 and 33 (3×)
tail length, individual mice ([2]; day 4): 17 (3×) and 18 and 19 and 16 (2×) and 15
body weight, individual mice ([2]; day 4, in g (unit assumed)): 2.07 and 2.76 and 2.5 and 1.89 and 2.29 and 1.86 and 2.18 and 2.91
body weight, individual mice ([2]; day 5): 2.2 (2×) and 3.12 and 2.97 and 2.23 and 2.52 and 2.53 and 3.27
body weight, individual mice ([2]; day 6, in g (unit assumed)): 2.34 and 3.32 and 3.31 and 2.62 and 2.85 and 2.61 and 2.97 and 3.58
nasoanal length, individual mice ([2]; day 7): 35 and 40 and 39 and 34 and 36 (4×)
tail length, individual mice ([2]; day 7): 25 and 23 (3×) and 21 (2×) and 24 and 22
body weight, individual mice ([2]; day 7, in g (unit assumed)): 2.5 and 3.76 and 3.67 and 3.01 and 3.07 and 3 and 3.31 and 4
body weight, individual mice ([2]; day 8, in g (unit assumed)): 2.88 and 4.38 and 4.13 and 3.59 and 3.58 and 3.33 and 3.74 and 4.2
body weight, individual mice ([2]; day 9): 3.25 and 4.59 (2×) and 4.2 and 3.92 and 3.86 and 3.97 and 4.66
nasoanal length, individual mice ([2]; day 10): 40 (3×) and 42 (3×) and 38 and 41
tail length, individual mice ([2]; day 10): 25 and 28 and 27 (3×) and 26 (2×) and 29
body weight, individual mice ([2]; day 10, in g (unit assumed)): 3.5 and 5.05 and 4.73 and 4.46 and 4.52 and 4.17 and 4.41 and 4.98
body weight, individual mice ([2]; day 11, in g (unit assumed)): 3.7 and 5.46 and 5.06 and 4.65 and 4.64 and 4.44 and 4.99 and 5.57
body weight, individual mice ([2]; day 12, in g (unit assumed)): 4.17 and 6.04 and 5.26 and 5.13 and 4.96 and 4.59 and 5.3 and 5.5
nasoanal length, individual mice ([2]; day 13): 41 and 46 (2×) and 44 (2×) and 43 and 42 and 45
tail length, individual mice ([2]; day 13): 31 (4×) and 35 (3×) and 32
body weight, individual mice ([2]; day 13, in g (unit assumed)): 4.57 and 6.33 and 5.41 and 5.39
nasoanal length, individual mice ([2]; day 16): 42 and 47 (2×) and 48 and 46 (2×) and 44 and 50
tail length, individual mice ([2]; day 16): 33 (2×) and 36 (4×) and 34 and 35
average normalization of long bone length toward wild-type ([2]; ACH model, 1.2 mg/kg): 26%
source data of Figure 2E (sheet "2E"): long bone length, bone not given [2, 13]: 7.38 and 6.94 and 7.67 and 7.62 and 7.75 and 7.48 and 7.35 and 7.46
source data of Figure 2F (sheet "2F"): long bone length, bone not given [2, 13]: 6.52 and 6.4 and 6.85 and 6.87 and 5.9 and 6.57 and 6.71
source data of Figure 2G (sheet "2G"): long bone length, bone not given [2, 13]: 6.5 and 6.23 and 7.03 and 6.67 and 6.08 and 7.07 and 6.74 and 6.82
source data of Figure 2H (sheet "2H"): long bone length, bone not given [2, 13]: 5.78 and 5.71 and 6.17 and 5.84 and 6.2 and 5.91 and 5.85 and 6.02
bone growth compared with low-dose infigratinib (0.5 mg/kg) ([2]; TYRA-300 1.2 mg/kg, 15 days starting at 1 day of age, comparator data ref 28, 29): more bone growth than low-dose infigratinib
